Assay [1] deals with neural stem cells. Kind of assay: Neural stem cell culture: secondary sphere formation from dissociated primary spheres (self-renewal). The format is cell-based, mice. To be noted: for number of secondary spheres: EGF or EGF plus LH (30 nM), limited density, Exp. #1-#3. As for the experimental part: Generation and differentiation of spheres from embryonic and adult forebrain were performed as described previously with minor modifications (Reynolds and Weiss, 1992; Reynolds et al., 1992). Briefly, striato-pallidum complexes were removed from mouse embryos at E14 and collected into PBS containing 0.6% glucose, penicillin (50 U/ml), and streptomycin (50 U/ml; both from Life Technologies, Gaithersburg, Md.) and then transferred into the standard culture medium composed of DMEM-F-12 (1:1), glucose (0.6%), glutamine (2 mM), sodium bicarbonate (3 mM), HEPES buffer (5 mM), insulin (25 μg/ml), transferrin (100 μg/ml), progesterone ([…]), putrescine (60 μM), and selenium chloride (30 nM) (all from Sigma, St. Louis, Mo., except glutamine from Life Technologies) For adult neural stem cell cultures, medial and lateral portions of the lateral ventricle subependyma from the adult brain were dissected from both hemispheres, pooled together, subsequently cut into 1 mm^2 fragments, and transferred into the standard culture medium containing 1.33 mg/ml trypsin, 0:67 mg/ml hyaluronidase, and 0.2 mg/ml kynurenic acid (all from Sigma). After 30 min at 37° C., the tissue was transferred to the standard culture medium containing 0.7 mg/ml trypsin inhibitor (Roche Diagnostics, Laval, Quebec, Canada). Tissue pieces were mechanically dissociated with micropipettes. Cells were seeded at various densities into the standard culture medium, which also contained EGF (20 ng/ml human recombinant; Peprotech, Rocky Hill, N.J.). Cells were cultured for 7 days in vitro (DIV) and formed floating cell clusters (spheres). All the mice for culture experiments were killed by cervical dislocation.

Assay [2] relates to neural stem cells in the SVZ. The experiment in a line: Infusion into the lateral ventricle by osmotic pump; BrdU positive (proliferating) cells counted in the SVZ. The format is in vivo, mice. To be noted: infusion of combination of LH and prolactin or hCG and prolactin vs LH or hCG; Example 5.
Experimental: To examine the number of progenitor cells in the SVZ after treatment, bromodeoxyuridine (BrdU) injections were used to label these cells. Animals received BrdU injections (120 mg/kg, i.p., dissolved in 0.007% NaOH in phosphate buffer) every 2 hours for a 10 hour period.
The sections were post-fixed with acetone for 30 seconds at room temperature and washed with PBS. For BrdU staining, the tissue was treated with 1M HCl for 22 minutes at 60° C. to denature cellular DNA. Sections were then incubated for 24 hours at room temperature in primary antibody (rat anti-BrdU, 1:50) diluted in 0.3% PBS-T containing 10% NGS, washed with PBS, and then incubated with goat-anti-rat secondary antibodies conjugated to biotin (1:200) for 1 hour at room temperature. After rinsing with ddH2O, sections were mounted with Fluorosave, because staining was visualized with CY3-Streptavodin, and viewed with a Zeiss Axiophot fluorescence microscope.
A one-in-ten series of coronal sections (14 μm) from the rostral tip of the lateral ventricle to caudal most aspect of the ventricles (total 10 sections) were collected. BrdU-positive cells were then counted in the defining ependymal-subependymal layer.
Sixteen 8-week-old CD-1 mice (Charles-River, Laval, Quebec, Canada) were anesthetized with sodium pentobarbital (120 mg/kg, i.p.) and implanted with osmotic pumps (Alzet 1007D; Alza, Palo Alto, Calif.). […]

Where “and” joins values, the source holds several entries; their conditions need not be identical. Identical values can stand only once.

With “EGF: EGF, 20 ng/ml human recombinant; Peprotech; comparator culture condition”, the “number of secondary spheres” value in assay [1] (neural stem cells isolated from female mice) was 172.3 and 157.6 and 197.9; in assay [1] (neural stem cells isolated from male mice), 144.4 and 225.1 and 168.2.

B1: prolactin: additional agent given in combination with LH or hCG (protein, UniProt P01236 29-227, looked up)
Prolactin: LPICPGGAARCQVTLRDLFDRAVVLSHYIHNLSSEMFSEFDKRYTHGRGFITKAINSCHTSSLATPEDKEQAQQMNQKDFLSLIVSILRSWNEPLYHLVTEVRGMQEAPEAILSKAVEIEEQTKRLLEGMELIVSQVHPETKENEIYPVWSGLPSLQMADEESRLSAYYNLLHCLRRDSHKIDNYLKLLKCRIIHNNNC
Regarding B1, the “proliferation in the SVZ, prolactin added to LH or hCG” value in assay [2] was “further enhances the effects of LH or hCG”. Moreover, in assay [1] (prolactin added with LH or hCG in neural stem cell cultures, Example 5), the “self-renewal (the number of secondary spheres from primary spheres)” value is recorded as “enhanced”.

The record behind these values is patent publication US8435949B2, “Pheromones and the luteinizing hormone for inducing proliferation of neural stem cells and neurogenesis” (Stem Cell Therapeutics Corp., priority 2004, dated 2013).
